Consider 38 molecules from paper PMC4302056 (Bioorganic & medicinal chemistry, 2014).

Structures are written as SMILES. Converted amounts (≈) assume the structure as drawn. “Also recorded” adds a separate entry of the source.

For assay [1], the system named is Histoplasma capsulatum. The experiment in a line: microbe, parasite or virus in culture. The class given is cell-based. To be noted: for anti-Histoplasma activity (in words): qualitative statement; for MIC50: Histoplasma capsulatum, 96 h, read-out: Histoplasma capsulatum MIC50.
For assay [2], the system named is Cryptococcus neoformans. The class given is cell-based.
Assay [3] has as its system DU-145 human prostate cancer cells. To be noted: read-out: IC50 of in vitro proliferation inhibition; cited from earlier work.
Assay [4] relates to Candida albicans. To be noted: cited from earlier work.
The test system of assay [5] is Histoplasma yeast. To be noted: inhibitory vs microbicidal; cited from earlier work.
Assay [6] deals with Aspergillus fumigatus. To be noted: cited from earlier work.
Assay [7] has as its system Blastomyces dermatitidis. To be noted: cited from earlier work.

Regarding `NC(=O)c1cc(-c2ccccc2)sc1NC(=O)c1ccc2c(c1)OCCO2` [4H2, reference compound], in assay [1], the “anti-Histoplasma activity (in words)” value is “abolished or reduced activity”. As to `CC(C)(C)OC(=O)Nc1ncc(C(O)c2ccccc2)s1` (stereo not shown) [Compound 2a, tert-Butyl{5-[hydroxy(phenyl)methyl]thiazol-2-yl}carbamate], in assay [1], the MIC50 was above 10 µM and the “anti-Histoplasma activity (in words)” value is “lack of activity”. With `Nc1ncc(Cc2ccccc2)s1` [Compound 3a, 5-Benzyl-2-thiazolamine], the MIC50 in assay [1] is above 10 µM.

As to `O=C(Nc1ncc(Cc2ccccc2)s1)C(F)(F)F` [Compound 4a, N-(5-Benzylthiazol-2-yl)trifluoroacetamide], the MIC50 in assay [1] is above 10 µM. As for `CC(C)C(=O)Nc1ncc(Cc2ccccc2)s1` [Compound 4b, N-(5-Benzylthiazol-2-yl)isobutyramide], the MIC50 in assay [1] was determined as 6.7 µM (≈ 1.74 µg/mL). For `O=C(Nc1ncc(Cc2ccccc2)s1)C1CCCC1` [Compound 4c, N-(5-Benzylthiazol-2-yl)cyclopentanecarboxamide], the MIC50 in assay [1] was 1.6 ± 0.1 µM (≈ 0.458 µg/mL). Also, the “anti-Cryptococcus activity (in words)” value in assay [2] was “anti-Cryptococcus activity”. Take `O=C(Nc1ncc(Cc2ccccc2)s1)C1CCCCC1` [Compound 4d, N-(5-Benzylthiazol-2-yl)cyclohexanecarboxamide]: the MIC50 in assay [1] came out at 1.6 ± 0.1 µM (≈ 0.481 µg/mL). In addition, the “anti-Cryptococcus activity (in words)” value in assay [2] was “anti-Cryptococcus activity”.

With `O=C(CC1CCCCC1)Nc1ncc(Cc2ccccc2)s1` [Compound 4e, N-(5-Benzylthiazol-2-yl)-2-cyclohexylacetamide], the “anti-Cryptococcus activity (in words)” value in assay [2] is recorded as “lost activity”. Take `O=C(CCC1CCCCC1)Nc1ncc(Cc2ccccc2)s1` [Compound 4f, N-(5-Benzylthiazol-2-yl)-3-cyclohexylpropanamide]: the “anti-Cryptococcus activity (in words)” value in assay [2] is recorded as “lost activity”.

For the molecule `O=C(/C=C/C1CCCCC1)Nc1ncc(Cc2ccccc2)s1` [Compound 4g, (E)-N-(5-Benzylthiazol-2-yl)-3-cyclohexylacrylamide], in assay [1], the MIC50 was above 10 µM.

Consider `O=C(Nc1ncc(Cc2ccccc2)s1)c1ccccc1` [Compound 4h, N-(5-Benzylthiazol-2-yl)benzamide], for which, in assay [1], the MIC50 is above 10 µM.

Regarding `O=C(Nc1ncc(Cc2ccccc2)s1)C1CCSCC1` [Compound 5a, N-(5-Benzylthiazol-2-yl)tetrahydro-2H-thiopyran-4-carboxamide], in assay [1], the MIC50 turned out to be 4.8 µM (≈ 1.53 µg/mL). `O=C(Nc1ncc(Cc2ccccc2)s1)C1CCOCC1` [Compound 5b, N-(5-Benzylthiazol-2-yl)tetrahydro-2H-pyran-4-carboxamide]: in assay [1], the MIC50 was above 10 µM. In the case of `O=C(Nc1ncc(Cc2ccccc2)s1)N1CCOCC1` [Compound 5f, N-(5-Benzylthiazol-2-yl)morpholine-4-carboxamide], in assay [1], the MIC50 was above 10 µM. Same read-out and setting: for `O=C(Nc1ncc(Cc2ccccc2)s1)c1cnc(-c2cccs2)s1` [Compound 5h, N-(5-Benzylthiazol-2-yl)-2-(thiophen-2-yl)thiazole-5-carboxamide] the value was above 10 µM. Turning to `COc1ccc(Cc2cnc(NC(=O)/C=C/c3ccco3)s2)cc1` [Compound 6d, 3-(2-Furyl)-N-[5-(4-methoxybenzyl)-1,3-thiazol-2-yl]acrylamide], in assay [1], the “anti-Histoplasma activity (in words)” value was “did not have any antifungal activity”. Also, the IC50 in assay [3] was 15 nM. For the molecule `O=C(CCC1CCCCC1)Nc1ncc(Cc2cccc(C(F)(F)F)c2)s1` [Compound 7a, N-{5-[3-(Trifluoromethyl)benzyl]thiazol-2-yl}-3-cyclohexanepropanamide], in assay [1], the “anti-Histoplasma activity (in words)” value is reported as “lack of activity”. On to `CC(C)C(=O)Nc1ncc(Cc2cccc3ccccc23)s1` [Compound 9b, N-[5-(1-Naphthalenylmethyl)thiazol-2-yl]isobutyramide], for which the “anti-Cryptococcus activity (in words)” value in assay [2] was “lost activity”. In the case of `O=C(Nc1ncc(Cc2cccc3ccccc23)s1)C1CCCC1` [Compound 9c, N-[5-(1-Naphthalenylmethyl)thiazol-2-yl]cyclopentanecarboxamide], the “anti-Cryptococcus activity (in words)” value in assay [2] is listed as “anti-Cryptococcus activity”. Consider `O=C(Nc1ncc(Cc2cccc3ccccc23)s1)C1CCCCC1` [Compound 9d, N-[5-(1-Naphthalenylmethyl)thiazol-2-yl]cyclohexanecarboxamide], for which the “inhibition of in vitro growth” value in assay [4], in assay [6] and in assay [7] was “does not inhibit” in each case. Moreover, in assay [5], the “type of antifungal action” value is reported as “inhibitory rather than microbicidal action”. In addition, the “anti-Cryptococcus activity (in words)” value in assay [2] is given as “anti-Cryptococcus activity”.

Consider `O=C(CC1CCCCC1)Nc1ncc(Cc2cccc3ccccc23)s1` [Compound 9e, N-[5-(1-Naphthalenylmethyl)thiazol-2-yl]-2-cyclohexaneacetamide], for which, in assay [2], the “anti-Cryptococcus activity (in words)” value is listed as “lost activity”.

As to `O=C(CCC1CCCCC1)Nc1ncc(Cc2cccc3ccccc23)s1` [Compound 9f, N-[5-(1-Naphthalenylmethyl)thiazol-2-yl]-3-cyclohexanepropanamide], the “anti-Cryptococcus activity (in words)” value in assay [2] is reported as “lost activity”. For the molecule `O=C(Nc1ncc(CCc2ccccc2)s1)C1CCCC1` [Compound 11a, N-(5-Phenethylthiazol-2-yl)cyclopentanecarboxamide], the MIC50 in assay [1] was determined as 0.9 ± 0.1 µM (≈ 0.27 µg/mL). On the same count and under the same terms, as for `O=C(CCC1CCCCC1)Nc1ncc(CCc2ccccc2)s1` [Compound 11b, N-(5-Phenethylthiazol-2-yl)-3-cyclohexanepropanamide], the figure is 0.7 ± 0.1 µM (≈ 0.24 µg/mL). Turning to `O=C(Nc1ncc(-c2ccccc2)s1)C1CCCC1` [Compound 12a, N-(5-Phenylthiazol-2-yl)cyclopentanecarboxamide], in assay [1], the MIC50 is above 10 µM. The same measure, in the same setting: for `O=C(Nc1ncc(-c2ccccc2)s1)C1CCCCC1` [Compound 12b, N-(5-Phenylthiazol-2-yl)cyclohexanecarboxamide] the value was above 10 µM. As for `CC(C)C(=O)Nc1ncc(CC2CCCCC2)s1` [Compound 13a, N-[5-(Cyclohexylmethyl)thiazol-2-yl]isobutyramide], in assay [1], the MIC50 is above 10 µM and the “anti-Histoplasma activity (in words)” value is given as “no activity”. As to `O=C(CC1CCCCC1)Nc1ncc(CC2CCCCC2)s1` [Compound 13c, N-[5-(Cyclohexylmethyl)thiazol-2-yl]-2-cyclohexaneacetamide], in assay [1], the MIC50 is above 10 µM and the “anti-Histoplasma activity (in words)” value was “no activity; also recorded: abolished activity”. On to `O=C(Nc1ncc(CC2CCCCC2)s1)c1ccccc1` [Compound 13e, N-[5-(Cyclohexylmethyl)thiazol-2-yl]benzamide], for which the MIC50 in assay [1] amounted to 4.6 µM (≈ 1.38 µg/mL). Consider `O=C(Nc1ncc(CC2CCCCC2)s1)C12CC3CC(CC(C3)C1)C2` [Compound 13f, N-[5-(Cyclohexylmethyl)thiazol-2-yl]adamantane-1-carboxamide], for which, in assay [1], the MIC50 was above 10 µM and the “anti-Histoplasma activity (in words)” value is on record as “no activity”.

For the molecule `O=C(CCC1CCCCC1)Nc1nnc(Cc2ccccc2)s1` [Compound 14a, N-(5-Benzyl-1,3,4-thiadiazol-2-yl)-3-cyclohexylpropanamide], in assay [1], the MIC50 was above 10 µM and the “anti-Histoplasma activity (in words)” value is “abolished or reduced activity”.

As for `CN(C(=O)CCC1CCCCC1)c1ncc(Cc2ccccc2)s1` [Compound 14b, N-(5-Benzylthiazol-2-yl)-3-cyclohexyl-N-methylpropanamide], in assay [1], the MIC50 was above 10 µM and the “anti-Histoplasma activity (in words)” value is recorded as “abolished or reduced activity”. For `Cc1nc(NC(=O)CCC2CCCCC2)sc1Cc1ccccc1` [Compound 14c, N-(5-Benzyl-4-methylthiazol-2-yl)-3-cyclohexylpropanamide], in assay [1], the MIC50 was above 10 µM and the “anti-Histoplasma activity (in words)” value was “reduced anti-Histoplasma activity or were inactive”. On to `O=C(Nc1nc(-c2ccccc2)cs1)C1CCCC1` [Compound 15a, N-(4-Phenylthiazol-2-yl)cyclopentanecarboxamide], for which the “anti-Histoplasma activity (in words)” value in assay [1] is “no activity”. As to `O=C(CCC1CCCCC1)Nc1nc(-c2ccccc2)cs1` [Compound 15b, N-(4-Phenylthiazol-2-yl)-3-cyclohexanepropanamide], the “anti-Histoplasma activity (in words)” value in assay [1] is on record as “no activity”. As for `O=C(Nc1nc(C23CC4CC(CC(C4)C2)C3)cs1)C1CCCC1` [Compound 15d, N-[4-(Adamantan-1-yl)thiazol-2-yl]cyclopentanecarboxamide], the MIC50 in assay [1] amounted to 7.4 µM (≈ 2.45 µg/mL). On to `O=C(Nc1nc(C23CC4CC(CC(C4)C2)C3)cs1)C1CCCCC1` [Compound 15e, N-[4-(Adamantan-1-yl)thiazol-2-yl]cyclohexanecarboxamide], for which the MIC50 in assay [1] is 2.5 ± 0.1 µM (≈ 0.861 µg/mL). In the case of `O=C(CC1CCCCC1)Nc1nc(C23CC4CC(CC(C4)C2)C3)cs1` [Compound 15f, N-[4-(Adamantan-1-yl)thiazol-2-yl]-2-cyclohexylacetamide], in assay [1], the “anti-Histoplasma activity (in words)” value is on record as “abolished activity”.
